Test results reported in article PMC9409043, “Serotonin 5-HT6 Receptor Ligands and Butyrylcholinesterase Inhibitors Displaying Antioxidant Activity—Design, Synthesis and Biological Evaluation of Multifunctional Agents against Alzheimer’s Disease” (International Journal of Molecular Sciences, 2022).
Where “and” joins values, the source holds several entries; their conditions need not be identical. Identical values can stand only once.

What was measured:
[1] = ABTS free radical scavenging assay
Excerpt: Antioxidant activity. As mentioned before, oxidative stress is one of the components of AD pathomechanism and is characterised by an imbalance in the production of ROS. One of the mechanisms by which antioxidants reduce the concentration of ROS and therefore prevent or slow the cell damage caused by free radicals is scavenging them. Thus, we tested the scavenging ability of compounds 12–19 in the spectrophotometric ABTS assay that we used before. In this assay, the ability of compounds to scavenge ABTS^• radicals, which are generated from 2,2’-azino-bis(3-ethylbenzothiazoline-6-sulphonic acid) (ABTS), is measured. We tested the compounds at three concentrations: 30, 75 and 150 μM after 5, 30 and 60 min of incubation using Trolox, a water-soluble vitamin E analogue, as a reference (Table S1 in Supporting information).
The spectrophotometric ABTS assay was performed in 96-well microplates with the reagents purchased from Sigma-Aldrich (Steinheim, Germany) according to the previously described procedure. Stock solutions of the tested compounds (6.4 mM) and reagents were prepared in DMSO and water, respectively. 2,2′-Azino-bis(3-ethylbenzothiazoline-6-sulfonic acid) free radical (ABTS^•) was prepared by mixing the stock solution of ABTS (7 mM) and […] (2.45 mM) in ratio 1:1. The mixture was kept in the dark at 4 °C for 16 h. The obtained solution of (ABTS^•) was diluted with water 20 times. Then, the test compound or water or mixture of DMSO/water in the appropriate ratio (0.02 mL) was added to ABTS^• solution (0.18 mL). The three concentrations of the test compounds and Trolox were tested in triplicate: 0.15, 0.075 and 0.03 mM. Changes in absorbance were measured at 734 nm after 5, 30 and 60 min, using a microplate reader (SPECTROstar Nano; BMG Labtech, Ortenberg, Germany). Based on the equation ((A0 − A)/A0) × 100% (where A0 and A were the absorbances without and with the test compound, respectively) the percentage of free radical scavenging activity was calculated. The results are presented as mean ± SD.

human 5-HT6 receptor = biological target: T1, human 5-HT6 receptor (Homo sapiens, UniProt P50406); assay: 5-HT6 receptor radioligand binding assay ([3H]-LSD, CHO-K1 membranes)
T1 construct: purchased PerkinElmer; host or cells: CHO-K1 cells, stably transfected (membrane preparation)
Method: 5-HT6R binding affinity and cholinesterase (AChE/BuChE) inhibitory activity. We evaluated the pharmacological properties of the final compounds 12–19 in vitro according to the previously described, well-established protocols. Their affinities for recombinant human 5-HT6 receptors (h5-HT6R) were tested in a radioligand binding assay and the inhibitory potencies against human recombinant AChE (hAChE) and BuChE isolated from human plasma (hBuChE) in the spectrophotometric Ellman’s assay. […].
We prepared 10 mM of stock solutions of tested compounds in DMSO. Serial dilutions of compounds were prepared in a 96-well microplate in assay buffers using the automated pipetting system epMotion 5070 (Eppendorf). Each compound was tested in 8 concentrations from 10^−5 to 10^−12 M (final concentration).
The radioligand binding assay was performed using membranes from CHO-K1 cells stably transfected with the human 5-HT6 receptor (PerkinElmer) according to the previously described procedure. All assays were carried out in duplicates. We prepared 50 µL working solution of the tested compounds, 50 µL [^3H]-LSD (final concentration 2.5 nM) and 150 µL diluted membranes (15 µg protein per well) in assay buffer (50 mM Tris, pH 7.4, 10 mM MgCl2, 0.1 mM EDTA) and transferred them to polypropylene 96-well microplates using a 96-well pipetting station Rainin Liquidator (MettlerToledo). Methiothepin (10 μM) was used to define nonspecific binding. The microplate was covered with sealing tape, mixed and incubated for 60 min at 27 °C. The reaction was terminated by rapid filtration through GF/B filter mate presoaked with 0.5% polyethyleneimine for 30 min. Ten rapid washes with 200 µL 50 mM Tris buffer (4 °C, pH 7.4) were performed using the automated harvester system Harvester-96 MACH III FM (Tomtec). The filter mates were dried at 37 °C in a forced air fan incubator and then solid scintillator MeltiLex was melted on filter mates at 90 °C for 5 min. Radioactivity was counted in MicroBeta2 scintillation counter (PerkinElmer). Data were fitted to a one-site curve-fitting equation with Prism 6 (GraphPad Software) and Ki values were estimated from the Cheng−Prusoff equation.

[2] = biological target: T2, BuChE isolated from human plasma (hBuChE) (Homo sapiens, UniProt P06276); assay: biochemical; type: biochemical; details: for IC50: mean ± SEM of at least three experiments
T2 construct: BuChE isolated from human plasma (hBuChE); tissue Vivonics (Bedford, MA, USA), donated; host or cells: human plasma
Method: (§1) 5-HT6R binding affinity and cholinesterase (AChE/BuChE) inhibitory activity. […] Their affinities for recombinant human 5-HT6 receptors (h5-HT6R) were tested in a radioligand binding assay and the inhibitory potencies against human recombinant AChE (hAChE) and BuChE isolated from human plasma (hBuChE) in the spectrophotometric Ellman’s assay.
(§2) The assay was based on spectrophotometric Ellman’s method and was performed in 96-well microplates with the reagents purchased from Sigma-Aldrich (Steinheim, Germany) according to the previously described procedure. hBuChE was kindly donated by Vivonics (Bedford, MA, USA). […] After 5 minutes of the enzymatic reaction, the changes in absorbance were measured at 412 nm, using a microplate reader (SPECTROstar Nano; BMG Labtech, Ortenberg, Germany). First, compounds were tested at the screening concentration of 10 µM. Based on the equation 100 − (S/B) × 100 (where S and B were the respective enzyme activities with and without the test sample, respectively) the percentage inhibition of each enzyme for each compound was calculated. […] The IC50 values were calculated using nonlinear regression (GraphPad Prism 5; GraphPad Software, San Diego, CA, USA) by plotting the residual enzyme activities against the applied inhibitor concentration. […] All experiments were performed in triplicate.

[3] = biological target: T3, human recombinant AChE (hAChE) (Homo sapiens, UniProt P22303); assay: biochemical; details: for IC50: mean ± SEM of at least three experiments
T3 construct: purchased Sigma-Aldrich (Steinheim, Germany)
Method: as §1, §2

[4] = Metabolic stability in human liver microsomes; type: in vitro ADME; details: for HLMs % Left: human, 2 h, pH 7.4
Method: Metabolic stability. […] For detailed results, including UPLC chromatograms and MS spectra, see the Supporting information (Figures S1–S16).
The metabolic stability was evaluated by incubation of compounds with human liver microsomes (Sigma-Aldrich, St. Louis, MO, USA) in 10 mM Tris–HCl buffer (pH 7.4) at 37 °C for 120 min in the presence of NADPH Regeneration System (Promega, Madison, WI, USA). The percentage of the remaining substrate and the most probable metabolic pathways were estimated by UPLC-MS analyses of the reaction mixtures.

CYP2D6 = biological target: T4, CYP2D6 (Homo sapiens, UniProt P10635); assay: CYP P450-Glo luminescence assay, CYP2D6; type: in vitro ADME
T4 construct: purchased Promega, Madison, WI, USA
Excerpt: Influence on CYP3A4 and CYP2D6 activity. Possible drug–drug interactions (DDIs) are an important issue for elderly patients, who are usually on multiple medications. They may result, among other things, from the interactions (inhibition or activation) of the cytochrome P450 isoenzymes, especially CYP3A4 and CYP2D6, which play the most significant role in drugs’ biotransformation. Therefore, to predict the potential influence of the studied compounds (14, 16 and 19) on the metabolism of other drugs, we used the CYP450 inhibition luminescence assay (Promega). […]. […] […]. […] […].
The influence on CYP 3A4 and 2D6 activity was estimated by respective luminescent CYP P450-Glo™ assay (Promega®, Madison, WI, USA). The compounds were tested in the concentration range of 0.1–25 µM. The results were compared to the respective reference CYP inhibitors: ketoconazole and quinidine.

[5] = Metabolic stability in mouse liver microsomes; type: in vitro ADME; details: 2 h, pH 7.4
[6] = tested on: patients with moderate Alzheimer’s dementia; details: phase II, adjunct to cholinesterase inhibitors, moderate Alzheimer’s dementia ref 14, 15; cited from earlier work

T3 sequence (P22303 32-614): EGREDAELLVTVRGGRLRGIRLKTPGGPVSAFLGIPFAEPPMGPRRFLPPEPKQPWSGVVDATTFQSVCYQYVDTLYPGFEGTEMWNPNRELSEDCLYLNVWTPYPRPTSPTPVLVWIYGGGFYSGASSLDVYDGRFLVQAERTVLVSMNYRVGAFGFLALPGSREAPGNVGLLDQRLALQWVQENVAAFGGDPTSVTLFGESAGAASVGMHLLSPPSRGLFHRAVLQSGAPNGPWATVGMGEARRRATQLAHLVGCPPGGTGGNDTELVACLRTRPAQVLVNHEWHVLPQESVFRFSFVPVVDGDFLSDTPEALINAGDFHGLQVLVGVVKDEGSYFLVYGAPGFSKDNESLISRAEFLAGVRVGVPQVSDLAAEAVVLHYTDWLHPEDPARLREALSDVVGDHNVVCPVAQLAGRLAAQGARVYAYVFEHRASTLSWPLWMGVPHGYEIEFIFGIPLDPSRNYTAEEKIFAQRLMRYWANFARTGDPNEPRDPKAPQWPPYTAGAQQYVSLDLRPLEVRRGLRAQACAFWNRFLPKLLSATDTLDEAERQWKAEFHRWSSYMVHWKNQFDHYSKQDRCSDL
T1 sequence (P50406 whole entry): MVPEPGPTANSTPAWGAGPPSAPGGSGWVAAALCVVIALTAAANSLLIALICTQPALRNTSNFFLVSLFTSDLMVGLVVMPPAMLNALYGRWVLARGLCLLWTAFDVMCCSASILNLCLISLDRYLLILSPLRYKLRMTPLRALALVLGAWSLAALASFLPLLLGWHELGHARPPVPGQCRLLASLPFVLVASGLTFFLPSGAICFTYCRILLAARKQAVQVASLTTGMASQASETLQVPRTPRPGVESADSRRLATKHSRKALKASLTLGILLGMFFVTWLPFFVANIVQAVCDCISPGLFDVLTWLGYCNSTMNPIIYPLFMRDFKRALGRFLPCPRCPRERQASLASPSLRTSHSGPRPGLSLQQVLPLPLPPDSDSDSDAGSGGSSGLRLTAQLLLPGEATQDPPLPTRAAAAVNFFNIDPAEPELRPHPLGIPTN
T2 sequence (P06276 29-602): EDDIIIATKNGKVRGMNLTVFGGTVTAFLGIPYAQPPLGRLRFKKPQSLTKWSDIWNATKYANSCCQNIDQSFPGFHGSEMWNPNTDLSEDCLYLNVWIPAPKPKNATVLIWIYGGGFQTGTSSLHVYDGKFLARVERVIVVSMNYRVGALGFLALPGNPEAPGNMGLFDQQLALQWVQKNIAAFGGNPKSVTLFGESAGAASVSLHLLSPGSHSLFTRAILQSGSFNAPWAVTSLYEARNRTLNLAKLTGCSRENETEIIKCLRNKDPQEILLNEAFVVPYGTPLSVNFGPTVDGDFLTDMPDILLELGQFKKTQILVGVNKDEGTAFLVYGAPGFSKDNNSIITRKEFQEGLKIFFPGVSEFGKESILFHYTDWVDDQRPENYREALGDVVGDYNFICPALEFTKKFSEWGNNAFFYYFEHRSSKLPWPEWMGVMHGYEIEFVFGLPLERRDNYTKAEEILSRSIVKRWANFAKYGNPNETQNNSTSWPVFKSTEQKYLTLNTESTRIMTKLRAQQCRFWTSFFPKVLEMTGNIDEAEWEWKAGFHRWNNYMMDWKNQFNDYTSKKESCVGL
T4 sequence (P10635 whole entry): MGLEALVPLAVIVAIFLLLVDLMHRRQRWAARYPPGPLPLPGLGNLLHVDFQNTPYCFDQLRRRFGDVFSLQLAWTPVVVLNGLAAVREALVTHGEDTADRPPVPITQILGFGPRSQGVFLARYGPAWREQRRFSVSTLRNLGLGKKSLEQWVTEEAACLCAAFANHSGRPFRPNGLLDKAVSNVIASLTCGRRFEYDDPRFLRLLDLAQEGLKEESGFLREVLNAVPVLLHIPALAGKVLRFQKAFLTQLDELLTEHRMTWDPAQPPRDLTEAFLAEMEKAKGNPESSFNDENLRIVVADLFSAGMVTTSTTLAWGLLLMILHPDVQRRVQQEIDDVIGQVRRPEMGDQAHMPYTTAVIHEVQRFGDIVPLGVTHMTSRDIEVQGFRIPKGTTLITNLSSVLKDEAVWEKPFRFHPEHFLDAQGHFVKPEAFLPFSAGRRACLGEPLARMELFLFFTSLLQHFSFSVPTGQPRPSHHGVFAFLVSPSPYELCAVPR

| Compound | % of ABTS• reduction ± SD ([1]; 30 µM, 5 min) [%] | % of ABTS• reduction ± SD ([1]; 30 µM, 30 min) [%] | % of ABTS• reduction ± SD ([1]; 30 µM, 60 min) | % of ABTS• reduction ± SD ([1]; 75 µM, 5 min) [%] | % of ABTS• reduction ± SD ([1]; 75 µM, 30 min) [%] | % of ABTS• reduction ± SD ([1]; 75 µM, 60 min) [%] | % of ABTS• reduction ± SD ([1]; 150 µM, 5 min) [%] | % of ABTS• reduction ± SD ([1]; 150 µM, 30 min) [%] | % of ABTS• reduction ± SD ([1]; 150 µM, 60 min) | Ki (human 5-HT6 receptor) [nM] | IC50 [2] | IC50 [3] [nM] | other results |
| --- | --- | --- | --- | --- | --- | --- | --- | --- | --- | --- | --- | --- | --- |
| O=S(=O)(c1ccccc1)n1ccc2c(OCCNCC3CCN(Cc4ccccc4)CC3)cccc21 [Compound 12, N-((1-Benzylpiperidin-4-yl)methyl)-2-((1-(phenylsulfonyl)-1H-indol-4-yl)oxy)ethan-1-amine] | 8±1 | 9±0 | 10±0% | 13±0 | 19±0 | 24±1 | 20±3 | 30±3 | 39±4% | 21 ± 1 | 2300 nM and 2320 nM | 3150 ± 81 | – |
| O=S(=O)(c1ccccc1)n1ccc2c(OCCNCCC3CCN(Cc4ccccc4)CC3)cccc21 [Compound 13, 2-(1-Benzylpiperidin-4-yl)-N-(2-((1-(phenylsulfonyl)-1H-indol-4-yl)oxy)ethyl)ethan-1-amine] | 5±1 | 5±1 | 6±1% | 9±1 | 11±1 | 13±1 | 20±0 | 29±1 | 34±1% | 17 ± 2 | 1110 ± 31 nM | 2260 ± 91 | – |
| O=S(=O)(c1ccccc1)N1CCc2c(OCCNCCCC3CCN(Cc4ccccc4)CC3)cccc21 [Compound 16, 3-(1-Benzylpiperidin-4-yl)-N-(2-((1-(phenylsulfonyl)indolin-4-yl)oxy)ethyl)propan-1-amine] | 7±0 | 7±1 | 7±1% | 7±2 | 9±2 | 11±3 | 10±0 | 19±1 | 24±1% | 598 ± 19 | 487 ± 12 nM | 821 ± 14 | main metabolic pathway [4]: oxidative deamination; HLMs % Left [4]: 84.40%; inhibition at 0.1 µM (CYP2D6; human, CYP2D6 enzyme in the luminescent P450-Glo assay (Promega), 0.1 µM): ~20%; MLMs % Left [5]: 84.48% |
| O=c1[nH]c2c(OCCNCC3CCN(Cc4ccccc4)CC3)cccc2n1Cc1ccccc1 [Compound 17, 1-Benzyl-4-(2-(((1-benzylpiperidin-4-yl)methyl)amino)ethoxy)-1,3-dihydro-2H-benzo[d]imidazol-2-one] | 8±2 | 14±3 | 18±4% | 12±2 | 22±2 | 27±1 | 19±2 | 32±2 | 39±2% | 136 ± 22 | – | – | inhibition at 10 µM ([2]; 10 µM concentration): 44.3%; inhibition at 10 µM ([3]; 10 µM concentration): 39.5% |
| O=c1[nH]c2c(OCCNCCCC3CCN(Cc4ccccc4)CC3)cccc2n1Cc1ccccc1 [Compound 19, 1-Benzyl-4-(2-((3-(1-benzylpiperidin-4-yl)propyl)amino)ethoxy)-1,3-dihydro-2H-benzo[d]imidazol-2-one] | 10±0 | 17±0 | 22±1% | 14±1 | 24±2 | 30±2 | 25±4 | 37±5 | 43±4% | 480 ± 48 | 613 ± 11 nM | 544 ± 15 | main metabolic pathway [4]: oxidative deamination; HLMs % Left [4]: 94.00%; influence on the activity of CYP2D6 (CYP2D6; 0.1 µM): did not influence the activity of CYP2D6; influence on the activity of CYP2D6 (CYP2D6; 1 µM): CYP2D6-activating effect; MLMs % Left [5]: 79.38% |
| Fc1ccc2c(CCNCc3cccc(OCC(F)(F)C(F)F)c3)c[nH]c2c1 [Idalopirdine] | – | – | – | – | – | – | – | – | – | – | – | – | effects on cognition [6]: positive effects on cognition |
| Cc1c(C)c2c(c(C)c1O)CCC(C)(C(=O)O)O2 (centres unmarked) [Trolox, reference compound] | 59±2 | 59±2 | 59±2% and 59% | 100±0 | 100±0 | 100 | 100±0 | 100±0 | 100±0% and 100% | – | – | – | – |
| O=S(=O)(c1ccccc1)c1cnc2c(N3CCNCC3)cccc2c1 [intepirdine] | – | – | – | – | – | – | – | – | – | – | – | – | effects on cognition [6]: positive effects on cognition |
